Measurements taken from PubChem BioAssay (NCI).
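Five concentrations, 48 hours, 96-well plates. TGI denotes the concentration required for complete inhibition of growth.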

Tests used:
Assay in all cases: inhibition of tumour cell growth, NCI panel, 48 h
CAKI-1 renal = tested on: CAKI-1 renal
CCRF-CEM leukemia = tested on: CCRF-CEM leukemia
HT29 colon = tested on: HT29 colon
KM12 colon = tested on: KM12 colon
MOLT-4 leukemia = tested on: MOLT-4 leukemia
OVCAR-8 ovarian = tested on: OVCAR-8 ovarian
SN12C renal = tested on: SN12C renal
ACHN renal = tested on: ACHN renal
HS 578T breast = tested on: HS 578T breast
MDA-MB-435 = tested on: MDA-MB-435

COc1c2ccoc2c(S(=O)(=O)Nc2ccc(Cl)cc2)c2oc(C)cc(=O)c12 gave a TGI (CAKI-1 renal) of over 95.9 µM, a TGI (CCRF-CEM leukemia) of over 100 µM and a TGI (HT29 colon) of over 100 µM. For the same compound, the TGI (KM12 colon) was over 100 µM, the TGI (MOLT-4 leukemia) was over 100 µM and the TGI (OVCAR-8 ovarian) was over 100 µM. It also gave a TGI (SN12C renal) of over 100 µM.
Work on Cc1onc(-c2c(F)cccc2Cl)c1C(=O)N[C@@H]1C(=O)N2[C@@H]1SC(C)(C)[C@@H]2C(=O)O yielded a TGI (ACHN renal) of over 100 µM, a TGI (CAKI-1 renal) of over 100 µM and a TGI (HS 578T breast) of over 100 µM. For the same compound, the TGI (HT29 colon) was over 100 µM, the TGI (KM12 colon) was over 100 µM and the TGI (MDA-MB-435) was over 100 µM. It also gave a TGI (OVCAR-8 ovarian) of over 100 µM and a TGI (SN12C renal) of over 100 µM.
Compound FC(F)(F)C1=NC(=NNc2nnc(-c3ccccc3)c(-c3ccccc3)n2)N=C(C(F)(F)F)C1 has a TGI (CAKI-1 renal) of over 100 µM, a TGI (CCRF-CEM leukemia) of over 100 µM and a TGI (HT29 colon) of over 100 µM. The TGI (KM12 colon) was over 100 µM, the TGI (MOLT-4 leukemia) was over 100 µM and the TGI (OVCAR-8 ovarian) was over 100 µM. It also gave a TGI (SN12C renal) of over 100 µM.
With O=C(/N=C/c1c(O)c2ccccc2oc1=O)NC1CCCCC1 the TGI (ACHN renal) was over 100 µM, the TGI (HT29 colon) was over 100 µM and the TGI (MOLT-4 leukemia) was over 100 µM. For the same compound, the TGI (OVCAR-8 ovarian) was over 100 µM and the TGI (SN12C renal) was over 100 µM.
CCOC(=O)[C@H]1C[C@]23CN(C(=O)OC(C)(C)C)CC[C@H]2CCC2(SCCCS2)[C@@H]3N1C showed a TGI (ACHN renal) of over 100 µM, a TGI (CAKI-1 renal) of over 100 µM and a TGI (CCRF-CEM leukemia) of over 100 µM. The TGI (HS 578T breast) was over 100 µM, the TGI (HT29 colon) was 53.3 µM and the TGI (KM12 colon) was over 100 µM. For the same compound, the TGI (MDA-MB-435) was over 100 µM, the TGI (MOLT-4 leukemia) was over 100 µM and the TGI (OVCAR-8 ovarian) was over 100 µM. It also gave a TGI (SN12C renal) of 44.3 µM.
In the case of OC1(c2ccc3ccccc3c2)c2ccc3ccccc3c2C2=NCCN21 (centres undefined), the TGI (ACHN renal) is reported as over 100 µM, the TGI (CAKI-1 renal) is reported as over 100 µM and the TGI (CCRF-CEM leukemia) is reported as over 100 µM. For the same compound, the TGI (HS 578T breast) was 53 µM, the TGI (HT29 colon) was over 100 µM and the TGI (KM12 colon) was over 100 µM. For the same compound, the TGI (MDA-MB-435) was over 100 µM, the TGI (MOLT-4 leukemia) was over 100 µM and the TGI (OVCAR-8 ovarian) was 82.2 µM. The TGI (SN12C renal) was over 100 µM.
Cc1ccc(S(=O)(=O)NCCSS(=O)(=O)c2ccc(C)cc2)cc1 showed a TGI (ACHN renal) of over 100 µM, a TGI (CCRF-CEM leukemia) of over 100 µM and a TGI (HS 578T breast) of over 100 µM. It also gave a TGI (HT29 colon) of 53.4 µM, a TGI (KM12 colon) of 85.8 µM and a TGI (MDA-MB-435) of 52 µM. For the same compound, the TGI (MOLT-4 leukemia) was over 100 µM, the TGI (OVCAR-8 ovarian) was over 100 µM and the TGI (SN12C renal) was 86.3 µM.
In the case of CC[N+](CC)(CC)/C(=N/S(=O)(=O)c1cc(C)c(Cl)cc1S)[N-]S(=O)(=O)c1ccc(Cl)cc1, the TGI (ACHN renal) is reported as over 100 µM, the TGI (CAKI-1 renal) is reported as over 100 µM and the TGI (CCRF-CEM leukemia) is reported as over 100 µM. The TGI (HS 578T breast) was over 100 µM, the TGI (HT29 colon) was over 100 µM and the TGI (KM12 colon) was over 100 µM. For the same compound, the TGI (MDA-MB-435) was over 100 µM, the TGI (MOLT-4 leukemia) was over 100 µM and the TGI (OVCAR-8 ovarian) was over 100 µM.
Work on C=C1C(=O)OC2/C=C(\C)CC(O)/C=C(/CO)CC(OC(=O)/C(C)=C/C)C12 (centres undefined) yielded a TGI (CAKI-1 renal) of 238 µM, a TGI (CCRF-CEM leukemia) of 76 µM and a TGI (HT29 colon) of 303 µM. The TGI (KM12 colon) was 229 µM, the TGI (MOLT-4 leukemia) was 43.8 µM and the TGI (OVCAR-8 ovarian) was 122 µM. It also gave a TGI (SN12C renal) of 437 µM.
With ClCC1(CCl)COC1 the TGI (ACHN renal) was over 100 µM, the TGI (CCRF-CEM leukemia) was over 100 µM and the TGI (HS 578T breast) was over 100 µM. The TGI (HT29 colon) was over 100 µM, the TGI (KM12 colon) was over 100 µM and the TGI (MDA-MB-435) was over 100 µM. For the same compound, the TGI (MOLT-4 leukemia) was over 100 µM, the TGI (OVCAR-8 ovarian) was over 100 µM and the TGI (SN12C renal) was over 100 µM.
For C[C@H](O)C(=O)SC[C@H](NC(=O)CC[C@@H](N)C(=O)O)C(=O)NCC(=O)O, the TGI (ACHN renal) was over 100 µM, the TGI (CAKI-1 renal) was over 100 µM and the TGI (CCRF-CEM leukemia) was over 100 µM. The TGI (HT29 colon) was over 100 µM, the TGI (KM12 colon) was over 100 µM and the TGI (MOLT-4 leukemia) was over 100 µM. For the same compound, the TGI (OVCAR-8 ovarian) was over 100 µM and the TGI (SN12C renal) was over 100 µM.
CCCc1ccc(OCC(=O)N/N=C/c2c(-c3ccccc3)[nH]c3ccccc23)cc1 was tested, and the TGI (ACHN renal) was over 100 µM, the TGI (CAKI-1 renal) was over 100 µM and the TGI (CCRF-CEM leukemia) was 40.1 µM. For the same compound, the TGI (HS 578T breast) was over 100 µM, the TGI (HT29 colon) was 29.8 µM and the TGI (KM12 colon) was 38.5 µM. The TGI (MDA-MB-435) was 8.74 µM, the TGI (MOLT-4 leukemia) was 30.4 µM and the TGI (OVCAR-8 ovarian) was 53.4 µM. It also gave a TGI (SN12C renal) of 32.1 µM.
